The source of these data is PMC4942689, “Deciphering the function of the CNGB1b subunit in olfactory CNG channels” (Scientific Reports, 2016).

For orientation: pEC50 means the EC50 on a negative log10 scale, so that one unit is a factor of ten.

pEC50: −log10 of the molar value. Values joined by “and” are separate entries in the source; they are usually repeats but may differ in a detail not shown here. Equal values may be shown once. Read-outs that look alike come from different tables or passages of the source.

The target in experiment [1] is T1, CNGA2RE:A4RE:B1b (Rattus norvegicus, UniProt A0A8I5ZN27+Q00195+Q64359, R430E/R538E).
T1 construct: expressed in transfected cells; host or cells: Xenopus laevis oocytes (cRNA injection), excised inside-out patches
Kind of experiment: Concentration-activation relationship and activation by fluorescent ligands, patch-clamp. Format: biochemical. The protocol: (§1) In order to determine the apparent affinity of the modulatory subunits in heterotetrameric CNGA2:A4:B1b channels for cGMP, we coexpressed each of them with disabled neighbored subunits, generating themselves activation effects only at much higher ligand concentrations. In case of two well-separated current components, this would allow us to determine the EC50 value for the CNGB1b and CNGA4 subunit in functional heterotetrameric channels. Patch-clamp experiments were performed using an Axopatch 200B amplifier (Molecular Devices LLC, CA, U.S.A.) in the inside-out configuration. The patch pipettes for recording of macroscopic currents were pulled from borosilicate glass tubing (outer diameter 2.0 mm, inner diameter 1.0 mm; Hilgenberg GmbH, Germany). […] The patches were formed as pushed inside-out patches. […] Cyclic nucleotide concentration jumps were performed using a double-barreled glass pipette mounted on a piezo-driven device. Intracellular (bath) and extracellular (pipette) solutions contained (mM) 150 KCl, 1 EGTA, 5 Hepes, pH = 7.4 with KOH. […] Currents in the absence of the cyclic nucleotide were subtracted. All patches included in this study were first tested for channel expression in the presence of a saturating ligand concentration. Only patches with large current, i.e. a large number of channels, were included in our statistics. The currents were measured at +10 mV or, if mentioned, at +100 mV. Fits of equations to data points were performed with the 8.1G® software (OriginLab Corporation, Northampton, U.S.A.). Concentration-activation relationships were obtained by relating the actual current amplitude, I, to the maximum current amplitude elicited by a saturating concentration of ligand, Imax, and plotting this ratio as function of the ligand concentration, x.
In general terms: In patch-clamp work, channel activity is measured electrically.

Experiment [2] concerns homotetrameric CNGA2TM (T539M) channels. Conditions: cited from earlier work.
Experiment [3] addresses T2, CNGA2:B1b channels (Rattus norvegicus, UniProt A0A8I5ZN27+Q00195).
T2 construct: expressed in transfected cells; host or cells: Xenopus laevis oocytes (cRNA injection), excised inside-out patches
In words: Concentration-activation relationship, inside-out patch-clamp. Format: biochemical. The method, then: as §1, with “Patch-clamp” for “In order to determine the apparent affinity of the modulatory subunits in heterotetrameric CNGA2:A4:B1b channels for cGMP, we coexpressed each of them with disabled neighbored subunits, generating themselves activation effects only at much higher ligand concentrations. In case of two well-separated current components, this would allow us to determine the EC50 value for the CNGB1b and CNGA4 subunit in functional heterotetrameric channels. Patch-clamp”, “x. The concentration-activation data were fitted using the Hill equation where EC50 is the ligand concentration of half maximum effect and H the Hill coefficient.” for “x.”

For experiment [4], the target named is T3, CNGA2:A4 channels (Rattus norvegicus, UniProt Q00195+Q64359).
T3 construct: expressed in transfected cells; host or cells: Xenopus laevis oocytes (cRNA injection), excised inside-out patches
The description is as above. In kind it is biochemical. The protocol: as §1, with “Patch-clamp” for “In order to determine the apparent affinity of the modulatory subunits in heterotetrameric CNGA2:A4:B1b channels for cGMP, we coexpressed each of them with disabled neighbored subunits, generating themselves activation effects only at much higher ligand concentrations. In case of two well-separated current components, this would allow us to determine the EC50 value for the CNGB1b and CNGA4 subunit in functional heterotetrameric channels. Patch-clamp”, “x. The concentration-activation data were fitted using the Hill equation where EC50 is the ligand concentration of half maximum effect and H the Hill coefficient.” for “x.”

Experiment [5] addresses T4, CNGA2RE:A4:B1bRE channels (Rattus norvegicus, UniProt A0A8I5ZN27+Q00195+Q64359, R1106E/R538E).
T4 construct: expressed in transfected cells; host or cells: Xenopus laevis oocytes (cRNA injection), excised inside-out patches
In words: Concentration-activation relationship, patch-clamp. Conditions: for pEC50: Equation 2, +100 mV. Format: biochemical. The method, then: In order to determine the apparent affinity of the modulatory subunits in heterotetrameric CNGA2:A4:B1b channels for cGMP, we coexpressed each of them with disabled neighbored subunits, generating themselves activation effects only at much higher ligand concentrations. In case of two well-separated current components, this would allow us to determine the EC50 value for the CNGB1b and CNGA4 subunit in functional heterotetrameric channels.
Patch-clamp experiments were performed using an Axopatch 200B amplifier (Molecular Devices LLC, CA, U.S.A.) in the inside-out configuration. The patch pipettes for recording of macroscopic currents were pulled from borosilicate glass tubing (outer diameter 2.0 mm, inner diameter 1.0 mm; Hilgenberg GmbH, Germany). The initial resistance was 0.7–1.3 MΩ. The patches were formed as pushed inside-out patches. […] Cyclic nucleotide concentration jumps were performed using a double-barreled glass pipette mounted on a piezo-driven device. Intracellular (bath) and extracellular (pipette) solutions contained (mM) 150 KCl, 1 EGTA, 5 Hepes, pH = 7.4 with KOH. […] Currents in the absence of the cyclic nucleotide were subtracted. All patches included in this study were first tested for channel expression in the presence of a saturating ligand concentration. Only patches with large current, i.e. a large number of channels, were included in our statistics. The currents were measured at +10 mV or, if mentioned, at +100 mV.
Fits of equations to data points were performed with the 8.1G® software (OriginLab Corporation, Northampton, U.S.A.). Concentration-activation relationships were obtained by relating the actual current amplitude, I, to the maximum current amplitude elicited by a saturating concentration of ligand, Imax, and plotting this ratio as function of the ligand concentration, x. The concentration-activation data were fitted using the Hill equation
For the concentration-activation relationships showing two components, the data points were fitted to the sum of two Hill equations according to
EC50,h, EC50,l, Hh, and Hl are the ligand concentration of half maximum current and the Hill coefficient for the high and low affinity component, respectively. a and (1-a) denote the contribution of the high and low affinity component, respectively.

T4 sequence (Q00195 whole entry R538E): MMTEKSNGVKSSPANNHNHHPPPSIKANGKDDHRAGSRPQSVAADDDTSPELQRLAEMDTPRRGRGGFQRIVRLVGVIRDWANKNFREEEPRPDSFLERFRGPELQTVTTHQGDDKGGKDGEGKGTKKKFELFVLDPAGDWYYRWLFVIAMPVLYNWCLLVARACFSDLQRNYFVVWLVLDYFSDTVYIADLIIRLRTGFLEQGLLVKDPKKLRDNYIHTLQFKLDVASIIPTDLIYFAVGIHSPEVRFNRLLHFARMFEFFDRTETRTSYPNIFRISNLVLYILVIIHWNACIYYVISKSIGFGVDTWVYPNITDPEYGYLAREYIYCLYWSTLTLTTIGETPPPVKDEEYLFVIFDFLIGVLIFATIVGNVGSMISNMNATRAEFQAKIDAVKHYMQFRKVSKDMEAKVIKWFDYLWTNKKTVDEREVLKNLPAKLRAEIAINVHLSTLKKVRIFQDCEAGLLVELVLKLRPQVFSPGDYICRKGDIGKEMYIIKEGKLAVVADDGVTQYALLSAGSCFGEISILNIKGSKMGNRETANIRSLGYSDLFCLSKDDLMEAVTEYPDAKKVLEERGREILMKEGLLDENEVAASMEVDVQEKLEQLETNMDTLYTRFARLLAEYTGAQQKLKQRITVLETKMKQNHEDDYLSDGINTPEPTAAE
T4 sequence (Q64359 whole entry): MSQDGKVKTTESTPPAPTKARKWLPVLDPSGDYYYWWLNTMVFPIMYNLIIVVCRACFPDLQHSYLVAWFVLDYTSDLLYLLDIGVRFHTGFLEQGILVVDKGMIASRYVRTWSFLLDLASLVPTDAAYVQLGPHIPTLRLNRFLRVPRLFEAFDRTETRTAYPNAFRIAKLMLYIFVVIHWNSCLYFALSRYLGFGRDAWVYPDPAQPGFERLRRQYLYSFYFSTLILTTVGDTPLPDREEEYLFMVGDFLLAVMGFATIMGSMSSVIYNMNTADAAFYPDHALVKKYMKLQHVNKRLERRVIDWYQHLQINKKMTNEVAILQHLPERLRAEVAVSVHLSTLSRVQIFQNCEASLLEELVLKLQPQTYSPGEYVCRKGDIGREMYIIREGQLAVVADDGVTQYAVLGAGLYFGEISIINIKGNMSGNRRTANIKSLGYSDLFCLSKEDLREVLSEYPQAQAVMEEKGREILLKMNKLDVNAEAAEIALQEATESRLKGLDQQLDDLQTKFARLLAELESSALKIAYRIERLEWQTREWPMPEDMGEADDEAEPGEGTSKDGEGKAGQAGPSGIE
T4 sequence (A0A8I5ZN27 1-858 isoform A0A8I5ZN27-2 R657E): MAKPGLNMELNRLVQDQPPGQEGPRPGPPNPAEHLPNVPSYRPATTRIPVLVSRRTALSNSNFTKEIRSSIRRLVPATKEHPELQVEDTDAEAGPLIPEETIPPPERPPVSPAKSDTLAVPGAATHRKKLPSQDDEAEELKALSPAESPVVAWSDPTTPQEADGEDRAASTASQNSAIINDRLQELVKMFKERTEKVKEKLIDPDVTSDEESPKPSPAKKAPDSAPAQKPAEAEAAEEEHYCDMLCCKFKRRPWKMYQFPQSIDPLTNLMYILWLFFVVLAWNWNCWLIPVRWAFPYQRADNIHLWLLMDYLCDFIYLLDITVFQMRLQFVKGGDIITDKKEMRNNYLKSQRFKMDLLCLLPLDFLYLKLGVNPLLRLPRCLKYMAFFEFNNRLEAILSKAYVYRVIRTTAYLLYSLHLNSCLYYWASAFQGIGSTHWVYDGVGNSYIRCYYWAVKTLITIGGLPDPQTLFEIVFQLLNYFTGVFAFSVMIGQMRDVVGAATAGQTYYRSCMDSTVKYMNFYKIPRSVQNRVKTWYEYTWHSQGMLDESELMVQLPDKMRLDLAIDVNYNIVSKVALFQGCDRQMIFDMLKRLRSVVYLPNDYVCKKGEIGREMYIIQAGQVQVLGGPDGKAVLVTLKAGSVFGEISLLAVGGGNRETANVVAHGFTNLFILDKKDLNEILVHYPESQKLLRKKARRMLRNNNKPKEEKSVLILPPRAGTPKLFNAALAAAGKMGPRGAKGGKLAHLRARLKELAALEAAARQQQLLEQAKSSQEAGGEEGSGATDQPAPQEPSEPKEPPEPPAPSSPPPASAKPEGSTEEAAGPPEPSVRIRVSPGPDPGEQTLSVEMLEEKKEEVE
T1 sequence (Q00195 whole entry R538E): as the sequence (Q00195 whole entry R538E) above
T1 sequence (Q64359 whole entry R430E): as the sequence (Q64359 whole entry) above, with R430E counted along it
T1 sequence (A0A8I5ZN27 1-858 isoform A0A8I5ZN27-2, stated change not applied): as the sequence (A0A8I5ZN27 1-858 isoform A0A8I5ZN27-2 R657E) above, with E657R counted along it
T2 sequence (Q00195 whole entry): as the sequence (Q00195 whole entry R538E) above, with E538R counted along it
T2 sequence (A0A8I5ZN27 1-858 isoform A0A8I5ZN27-2): as the sequence (A0A8I5ZN27 1-858 isoform A0A8I5ZN27-2 R657E) above, with E657R counted along it
T3 sequence (Q00195 whole entry): as the sequence (Q00195 whole entry R538E) above, with E538R counted along it
T3 sequence (Q64359 whole entry): as the sequence (Q64359 whole entry) above

With 8-[DY-547]-AET-cGMP [fcGMP], the “activation (I/Imax)” value in experiment [1] (10 μM fcGMP, normalized to current at 4 mM cGMP) worked out at 1.6 ± 0.4%. For the same molecule, in experiment [2] (10 μM fcGMP, homotetrameric CNGA2TM), the activation result is “negligible activation”.

Turning to `Nc1nc2c(ncn2[C@@H]2O[C@@H]3COP(=O)(O)O[C@H]3[C@H]2O)c(=O)[nH]1` [cGMP], the H1 in experiment [1] (Hill coefficient of low affinity component, CNGA2RE:A4RE:B1b, +100 mV) was 1.2; in experiment [5] (Hill coefficient of low affinity component, +100 mV), 1.1. For the same molecule, the “a (contribution of the high affinity component)” value in experiment [1] (fraction, CNGA2RE:A4RE:B1b, Equation 2) is given as 0.07; in experiment [5] (fraction, Equation 2), 0.24. For the same molecule, the pEC50 was 5.44 in experiment [1] (high affinity component (action of CNGB1b), CNGA2RE:A4RE:B1b, Equation 2, +100 mV, read-out: EC50,h); 3.75 in experiment [1] (low affinity component, CNGA2RE:A4RE:B1b, Equation 2, +100 mV, read-out: EC50,l); 5.72 in experiment [3] (Equation 1); 5.89 in experiment [4] (Equation 1); 4.98 in experiment [2] (CNGA2TM, Equation 1, ref Nache et al., 2012); 5.05 in experiment [5] (high affinity component (action of CNGA4), read-out: EC50,h). Moreover, the pEC50 in experiment [5] (low affinity component, read-out: EC50,l) was 3.44. The “maximum contribution of CNGB1b to channel activation (a)” value in experiment [1] (of the maximum channel activity generated by all subunits, CNGA2RE:A4RE:B1b) is 7.2% and ~ 7%. Besides, the H in experiment [3] (Hill coefficient) is given as 2.0; in experiment [4] (Hill coefficient), 1.7. Also, the “maximum contribution of CNGA4 to channel activation (a)” value in experiment [5] (of the maximum channel activity generated by all subunits) is 24.6% and ~ 24%.
